± gives the uncertainty stated by the source.
Assay: xn = mol fraction of the nth substance listed

CCOC(=O)CCl + Brc1ccccc1
viscosity [mPa·s], 101.3 kPa
Conditions	x1 = 0.1089	x1 = 0.2034	x1 = 0.3024	x1 = 0.3976	x1 = 0.5011	x1 = 0.6018	x1 = 0.6992	x1 = 0.7963	x1 = 0.8948
298.15 K	1.079 ± 0.014	1.079 ± 0.014	1.08 ± 0.014	1.082 ± 0.014	1.085 ± 0.014	1.087 ± 0.014	1.092 ± 0.014	1.096 ± 0.014	1.098 ± 0.014
303.15 K	1.012 ± 0.013	1.011 ± 0.013	1.01 ± 0.013	1.011 ± 0.013	1.012 ± 0.013	1.014 ± 0.013	1.017 ± 0.014	1.018 ± 0.014	1.01 ± 0.013
308.15 K	0.947 ± 0.013	0.943 ± 0.013	0.94 ± 0.013	0.938 ± 0.013	0.938 ± 0.013	0.942 ± 0.013	0.941 ± 0.013	0.941 ± 0.013	0.939 ± 0.013

CCCCCCCCN(CCCCCCCC)CCCCCCCC + C1CCCCC1
303.15 K, 101 kPa
Conditions	viscosity [mPa·s]
x2 = 0.1179	6.488 ± 0.13
x2 = 0.1582	6.33 ± 0.13
x2 = 0.3086	5.344 ± 0.11
x2 = 0.4099	4.83 ± 0.097
x2 = 0.5029	4.33 ± 0.087
x2 = 0.6074	3.468 ± 0.07
x2 = 0.7022	2.757 ± 0.055
x2 = 0.8023	2.054 ± 0.041
x2 = 0.902	1.416 ± 0.028

CCCCOCCO + C1CCCCC1
viscosity [mPa·s], 101 kPa
Conditions	298.15 K	308.15 K
x1 = 0.0557	0.95 ± 0.016	0.79 ± 0.014
x1 = 0.1501	1.046 ± 0.018	0.866 ± 0.015
x1 = 0.2504	1.162 ± 0.019	0.958 ± 0.016
x1 = 0.3543	1.3 ± 0.021	1.066 ± 0.018
x1 = 0.4488	1.443 ± 0.023	1.178 ± 0.02
x1 = 0.5025	1.532 ± 0.025	1.248 ± 0.021
x1 = 0.5493	1.616 ± 0.026	1.313 ± 0.022
x1 = 0.6485	1.813 ± 0.029	1.465 ± 0.024
x1 = 0.7494	2.043 ± 0.032	1.642 ± 0.026
x1 = 0.8511	2.311 ± 0.036	1.848 ± 0.03
x1 = 0.9556	2.631 ± 0.04	2.091 ± 0.033

COC(=O)c1ccccc1 + C1CCCCC1
101 kPa, x1 = 0.5996
Conditions	viscosity [mPa·s]
303.15 K	0.9344 ± 0.096
308.15 K	0.8826 ± 0.091
313.15 K	0.8403 ± 0.087

c1ccc2c(c1)CCCC2 + C1CCCCC1
298.15 K, 101 kPa
Conditions	viscosity [mPa·s]
x1 = 0.1649	0.9811 ± 0.013
x1 = 0.3447	1.127 ± 0.015
x1 = 0.5442	1.324 ± 0.017
x1 = 0.7597	1.619 ± 0.021

C=CC(=O)OC(C)(C)C + C1CCOC1
viscosity [mPa·s], 101 kPa
Conditions	293.15 K	298.15 K	303.15 K	308.15 K	313.15 K	318.15 K
x2 = 0.0736	0.8645 ± 0.035	0.7935 ± 0.032	0.7273 ± 0.03	0.6717 ± 0.027	0.622 ± 0.025	0.579 ± 0.024
x2 = 0.1489	0.8229 ± 0.034	0.757 ± 0.031	0.6954 ± 0.028	0.6433 ± 0.026	0.5964 ± 0.024	0.5554 ± 0.023
x2 = 0.2121	0.7896 ± 0.032	0.7278 ± 0.03	0.6699 ± 0.027	0.6206 ± 0.025	0.5759 ± 0.024	0.5365 ± 0.022
x2 = 0.2773	0.7568 ± 0.031	0.6992 ± 0.028	0.6449 ± 0.026	0.5984 ± 0.024	0.5558 ± 0.023	0.5179 ± 0.021
x2 = 0.362	0.7164 ± 0.029	0.664 ± 0.027	0.6143 ± 0.025	0.5711 ± 0.023	0.5312 ± 0.022	0.495 ± 0.02
x2 = 0.4382	0.6823 ± 0.028	0.6343 ± 0.026	0.5886 ± 0.024	0.5482 ± 0.022	0.5105 ± 0.021	0.4758 ± 0.019
x2 = 0.5024	0.6551 ± 0.027	0.6107 ± 0.025	0.5681 ± 0.023	0.53 ± 0.022	0.494 ± 0.02	0.4604 ± 0.019
x2 = 0.5815	0.6237 ± 0.025	0.5835 ± 0.024	0.5446 ± 0.022	0.5091 ± 0.021	0.475 ± 0.019	0.4427 ± 0.018
x2 = 0.6532	0.597 ± 0.024	0.5605 ± 0.023	0.5247 ± 0.021	0.4914 ± 0.02	0.4589 ± 0.019	0.4276 ± 0.017
x2 = 0.7268	0.5716 ± 0.023	0.5385 ± 0.022	0.5058 ± 0.021	0.4745 ± 0.019	0.4435 ± 0.018	0.4131 ± 0.017
x2 = 0.7921	0.5505 ± 0.022	0.5204 ± 0.021	0.4902 ± 0.02	0.4607 ± 0.019	0.4308 ± 0.017	0.4012 ± 0.016
x2 = 0.8698	0.5273 ± 0.021	0.5006 ± 0.02	0.4732 ± 0.019	0.4455 ± 0.018	0.4168 ± 0.017	0.3879 ± 0.016
x2 = 0.9352	0.5094 ± 0.021	0.4853 ± 0.02	0.4601 ± 0.019	0.4337 ± 0.018	0.4059 ± 0.017	0.3776 ± 0.015

COC(=O)c1ccccc1 + C1CCOC1
viscosity [mPa·s], 100 kPa
Conditions	x1 = 0.0689	x1 = 0.1417	x1 = 0.2202	x1 = 0.303	x1 = 0.3932	x1 = 0.493	x1 = 0.6018	x1 = 0.7225	x1 = 0.8535
303.15 K	0.496 ± 0.02	0.562 ± 0.023	0.638 ± 0.026	0.727 ± 0.029	0.829 ± 0.034	0.951 ± 0.039	1.096 ± 0.044	1.262 ± 0.051	1.446 ± 0.059
308.15 K	0.484 ± 0.02	0.546 ± 0.022	0.616 ± 0.025	0.699 ± 0.028	0.79 ± 0.032	0.904 ± 0.037	1.032 ± 0.042	1.181 ± 0.048	1.343 ± 0.054
313.15 K	0.443 ± 0.018	0.505 ± 0.021	0.567 ± 0.023	0.641 ± 0.026	0.729 ± 0.03	0.83 ± 0.034	0.943 ± 0.038	1.078 ± 0.044	1.22 ± 0.05

CCCCCCBr + C1COCCO1
303.15 K, 101.3 kPa
Conditions	viscosity [mPa·s]
x2 = 0.1105	0.8848 ± 0.0056
x2 = 0.3021	0.8777 ± 0.0056
x2 = 0.4972	0.9007 ± 0.0057
x2 = 0.698	0.947 ± 0.006
x2 = 0.8997	1.03 ± 0.0065

COC(=O)c1ccccc1 + C1COCCO1
viscosity [mPa·s], 100 kPa
Conditions	x1 = 0.0898	x1 = 0.1468	x1 = 0.228	x1 = 0.3145	x1 = 0.4054	x1 = 0.5056	x1 = 0.6161	x1 = 0.7316	x1 = 0.8597
303.15 K	1.13 ± 0.046	1.157 ± 0.047	1.198 ± 0.049	1.244 ± 0.05	1.293 ± 0.052	1.352 ± 0.055	1.418 ± 0.057	1.491 ± 0.06	1.573 ± 0.064
308.15 K	1.038 ± 0.042	1.066 ± 0.043	1.106 ± 0.045	1.147 ± 0.046	1.192 ± 0.048	1.246 ± 0.05	1.308 ± 0.053	1.376 ± 0.056	1.449 ± 0.059
313.15 K	0.984 ± 0.04	1.006 ± 0.041	1.04 ± 0.042	1.075 ± 0.044	1.11 ± 0.045	1.157 ± 0.047	1.208 ± 0.049	1.263 ± 0.051	1.324 ± 0.054

CCCCCCBr + C=C(C)C(=O)OC
303.15 K, 101 kPa
Conditions	viscosity [mPa·s]
x2 = 0.1439	0.8087 ± 0.0074
x2 = 0.2632	0.7611 ± 0.0071
x2 = 0.4885	0.6895 ± 0.0067
x2 = 0.5904	0.6665 ± 0.0066
x2 = 0.6826	0.6354 ± 0.0064
x2 = 0.8513	0.5709 ± 0.0061
x2 = 0.9171	0.5459 ± 0.0059
